Results taken from US12408664B2 (priority 2018, dated 2025).
Values joined by “and” are separate entries in the source; they are usually repeats but may differ in a detail not shown here. Equal values may be shown once.

Experiments:
[1] = tested on: R. solani; assay: New inoculants in MEB liquid culture amended with calcium propionate; format: cell-based, Rhizoctonia solani; conditions: MEB with 1, 2, 5 and 10% (w/v) calcium propionate; five days
Experimental: (§1) To examine the effective dose range in liquid culture, malt extract broth (MEB) was prepared and amended with calcium propionate at concentrations of 1, 2, 5 and 10% (w/v). Unamended MEB was used as a control for growth. Each of the four microbes identified in Example 1 was tested twice by inoculating MEB using agarose plugs from luxuriant cultures. Growth was observed over five days. In each microbe examined, visible growth in liquid culture was apparent by day 2 following inoculation with well-established growth by 4 days in the absence of calcium propionate.

[2] = tested on: R. solani; assay: Growth on PDA with calcium propionate fully integrated into the agarose; format: cell-based, Rhizoctonia solani; conditions: for Growth, R. solani: single plate
Experimental: (§2) In contrast to the zone of inhibition assays described in Examples 1-3, for this experiment, PDA with calcium propionate fully integrated into the agarose was prepared. Thus, inoculants were grown on plates in which calcium propionate was incorporated at a uniform concentration throughout the plate, rather than the zones of concentration established by simple diffusion in the zone of inhibition assays. The PDA plates were amended with 5, 7.5, 10, or 12% (w/v) calcium propionate. Growth diameter was recorded for 15 days post inoculation. The data shown in Table 3 represent the results of single plate tests.

[3] = tested on: G. graminis; assay: as above; format: cell-based, Gaeumannomyces graminis
Experimental: as §2

[4] = tested on: G. graminis; assay: Zone of inhibition assay on PDA plates; format: cell-based, Gaeumannomyces graminis
Experimental: To test the efficacy of calcium propionate (CaP) against the four microbes listed above, zone of inhibition assays were performed. Wells were bored in potato dextrose agarose (PDA) plates then amended with […] calcium propionate at concentrations of 0.1%, 0.2%, 0.3%, 0.4%, and 0.5% (w/v). Control plates were amended with […] dH2O. Plates were inoculated using plugs from active cultures. Growth patterns were observed over seven days. Representative results with M. poae are shown at three days following inoculation (FIG. 1A) and seven days following inoculation (FIG. 1B).
The zone of inhibition assays described in Example 1 were performed using calcium propionate doses of 0.5%, 1%, 2%, 3%, and 4% (w/v). Growth diameter was recorded at 2, 5, and 7 days post inoculation. The data shown in Table 1 represent the average±standard deviation (SD) of two replicate plates for each strain tested.
Zone of inhibition assays using PDA plates amended with 5-12% (w/v) calcium propionate were performed as described above. As a control, plates were amended with a composition comprising propiconazole, a commonly used fungicidal treatment for microbe infection of turfgrass, sold under the trademark Banner MaxxII®. Growth diameter was recorded for 13 days post inoculation. The data shown in Table 2 represent the average±standard deviation (SD) of three replicate plates for each strain tested. Inoculants of S. homoeocarpa, M. poae, and R. solani generally grow to luxuriant culture, covering the entire surface of the plate (8.5 cm growth) in 7 days.

[5] = tested on: R. solani; assay: Plug transfer to PDA plates without calcium propionate (fungistatic or fungicidal); format: cell-based, Rhizoctonia solani
[6] = tested on: S. homoeocarpa; assay: Disrupted well-established culture transferred to amended MEB; format: cell-based, Scerotinia homoeocarpa; conditions: MEB with 1%, 2%, 5% or 10% (w/v) calcium propionate; five days
Excerpt: To examine the effect of calcium propionate on well-established cultures of S. homoeocarpa and M. poae, MEB was inoculated with agarose plugs as previously described. Cultures were allowed to grow for 10 days to establish a robust hyphal mat. After 10 days, hyphal mats were disrupted by pipetting to break up mycelium (disrupted culture). One milliliter of disrupted culture was transferred to MEB amended with 1%, 2%, 5%, or 10% (w/v) calcium propionate. MEB without calcium propionate was used as a control. Cultures were allowed to grow for five days following inoculation with disrupted mycelium.

[7] = tested on: turfgrass; assay: Golf Course 1: appearance of treated turfgrass; format: in vivo, Festuca rubra; conditions: after 10 days
Experimental: Calcium propionate was dissolved in water to form a 5% (w/v) solution. […] Zone 1 was left untreated, Zone 2 was treated with 2.5 grams calcium propionate per square meter, Zone 3 was treated with 5 grams of calcium propionate per square meter, and Zone 4 was treated with 10 grams of calcium propionate per square meter. The turfgrass was comprised primarily of Festuca rubra. The calcium propionate 5% (w/v) solution was sprayed onto the turfgrass.
The four zones were visually inspected for dollar spot after 10 days. […] In contrast, dollar spot could, still be visually detected in untreated Zone 1.

[8] = tested on: G. graminis; assay: New inoculants in MEB liquid culture amended with calcium propionate; format: cell-based, Gaeumannomyces graminis; conditions: MEB with 1, 2, 5 and 10% (w/v) calcium propionate; five days
Experimental: as §1

## CCC(=O)[O-].CCC(=O)[O-].[Ca+2] [calcium propionate]
[1]
  growth in liquid culture, R. solani: no growth was observed
[2]; PDA with 5% (w/v) calcium propionate, day 4
  Growth, R. solani: 1.3 cm
[2]; PDA with 5% (w/v) calcium propionate, day 5
  Growth, R. solani: 1.7 cm
[2]; PDA with 5% (w/v) calcium propionate, day 8
  Growth, R. solani: 2.5 cm
[2]; PDA with 5% (w/v) calcium propionate, day 11
  Growth, R. solani: 3.2 cm
[2]; PDA with 5% (w/v) calcium propionate, day 15
  Growth, R. solani: 4.6 cm
[2]; PDA with 7.5% (w/v) calcium propionate, day 4
  Growth, R. solani: 0 cm
[2]; PDA with 7.5% (w/v) calcium propionate, day 5
  Growth, R. solani: 1 cm
[2]; PDA with 7.5% (w/v) calcium propionate, day 8
  Growth, R. solani: 1.2 cm
[2]; PDA with 7.5% (w/v) calcium propionate, day 11
  Growth, R. solani: 1.2 cm
[2]; PDA with 7.5% (w/v) calcium propionate, day 15
  Growth, R. solani: 2.0 cm and 2 cm
[2]; PDA with 10% (w/v) calcium propionate, day 4
  Growth, R. solani: 0 cm
[2]; PDA with 10% (w/v) calcium propionate, day 5
  Growth, R. solani: 0 cm
[2]; PDA with 10% (w/v) calcium propionate, day 8
  Growth, R. solani: 0 cm
[2]; PDA with 10% (w/v) calcium propionate, day 11
  Growth, R. solani: 0 cm
[2]; PDA with 10% (w/v) calcium propionate, day 15
  Growth, R. solani: 0 cm
[2]; PDA with 10% and 12% (w/v) calcium propionate, 15 days
  growth inhibition, R. solani: fully inhibited growth
[2]; PDA with 12% (w/v) calcium propionate, day 4
  Growth, R. solani: 0 cm
[2]; PDA with 12% (w/v) calcium propionate, day 5
  Growth, R. solani: 0 cm
[2]; PDA with 12% (w/v) calcium propionate, day 8
  Growth, R. solani: 0 cm
[2]; PDA with 12% (w/v) calcium propionate, day 11
  Growth, R. solani: 0 cm
[2]; PDA with 12% (w/v) calcium propionate, day 15
  Growth, R. solani: 0 cm
[3]; PDA with 5% (w/v) calcium propionate, day 4, single plate
  Growth, G. graminis: 0 cm
[3]; PDA with 5% (w/v) calcium propionate, day 5, single plate
  Growth, G. graminis: 0 cm
[3]; PDA with 5% (w/v) calcium propionate, day 8, single plate
  Growth, G. graminis: 0 cm
[3]; PDA with 5% (w/v) calcium propionate, day 11, single plate
  Growth, G. graminis: 0 cm
[3]; PDA with 5% (w/v) calcium propionate, day 15, single plate
  Growth, G. graminis: 0 cm
[3]; PDA with 7.5% (w/v) calcium propionate, day 4, single plate
  Growth, G. graminis: 0 cm
[3]; PDA with 7.5% (w/v) calcium propionate, day 5, single plate
  Growth, G. graminis: 0 cm
[3]; PDA with 7.5% (w/v) calcium propionate, day 8, single plate
  Growth, G. graminis: 0 cm
[3]; PDA with 7.5% (w/v) calcium propionate, day 11, single plate
  Growth, G. graminis: 0 cm
[3]; PDA with 7.5% (w/v) calcium propionate, day 15, single plate
  Growth, G. graminis: 0 cm
[3]; PDA with 10% (w/v) calcium propionate, day 4, single plate
  Growth, G. graminis: 0 cm
[3]; PDA with 10% (w/v) calcium propionate, day 5, single plate
  Growth, G. graminis: 0 cm
[3]; PDA with 10% (w/v) calcium propionate, day 8, single plate
  Growth, G. graminis: 0 cm
[3]; PDA with 10% (w/v) calcium propionate, day 11, single plate
  Growth, G. graminis: 0 cm
[3]; PDA with 10% (w/v) calcium propionate, day 15, single plate
  Growth, G. graminis: 0 cm
[3]; PDA with 12% (w/v) calcium propionate, day 4, single plate
  Growth, G. graminis: 0 cm
[3]; PDA with 12% (w/v) calcium propionate, day 5, single plate
  Growth, G. graminis: 0 cm
[3]; PDA with 12% (w/v) calcium propionate, day 8, single plate
  Growth, G. graminis: 0 cm
[3]; PDA with 12% (w/v) calcium propionate, day 11, single plate
  Growth, G. graminis: 0 cm
[3]; PDA with 12% (w/v) calcium propionate, day 15, single plate
  Growth, G. graminis: 0 cm
[3]; any of the concentrations tested (5, 7.5, 10, 12% w/v), 15 days
  Growth, G. graminis: no growth
[4]; 5-12% (w/v) calcium propionate, day 2, average ± SD of three plates
  Growth, G. graminis: 1.2 ± 0.3 cm
[4]; 5-12% (w/v) calcium propionate, day 3, average ± SD of three plates
  Growth, G. graminis: 2.2 ± 0.3 cm
[4]; 5-12% (w/v) calcium propionate, day 6, average ± SD of three plates
  Growth, G. graminis: 2.7 ± 0.3 cm
[4]; 5-12% (w/v) calcium propionate, day 7, average ± SD of three plates
  Growth, G. graminis: 4.0±0.6 cm
[4]; 5-12% (w/v) calcium propionate, day 10, average ± SD of three plates
  Growth, G. graminis: 5.9 ± 0.5 cm
[4]; 5-12% (w/v) calcium propionate, day 13, average ± SD of three plates
  Growth, G. graminis: 8.3 ± 0.3 cm
[4]; wells 0.1-0.5% (w/v) calcium propionate, observed over seven days
  growth inhibition, G. graminis: no growth inhibition was observed
[4]; wells 0.5-4% (w/v) calcium propionate, 2 and 5 days post inoculation
  growth inhibition, G. graminis: growth inhibition
[4]; wells 0.5-4% (w/v) calcium propionate, 7 days post inoculation
  growth difference versus control plates, G. graminis: no growth difference was observed
[4]; wells 0.5-4% (w/v) calcium propionate, day 2, average ± SD of two plates
  Growth, G. graminis: 1.6 ± 0.1 cm
[4]; wells 0.5-4% (w/v) calcium propionate, day 5, average ± SD of two plates
  Growth, G. graminis: 4.7 ± 0.2 cm
[4]; wells 0.5-4% (w/v) calcium propionate, day 7, average ± SD of two plates
  Growth, G. graminis: 7 ± 0.1 cm
[5]
  concentration required to achieve a fungicidal effect on R. solani: 10-12 % (w/v)
[5]; 5% (w/v) calcium propionate
  fungistatic or fungicidal effect, R. solani: fungistatic rather than fungicidal
[5]; plugs from 5% and 7.5% (w/v) calcium propionate plates, 6-7 days following transfer
  growth on unamended PDA after plug transfer, R. solani: luxuriant growth
[5]; plugs from 10% and 12% (w/v) calcium propionate plates
  growth on unamended PDA after plug transfer, R. solani: did not grow
[6]
  growth of disrupted culture, S. homoeocarpa: No growth was observed
[7]; Zone 2: 2.5 grams per square meter
  appearance of the turfgrass: appeared healthy
[7]; Zone 3: 5 grams per square meter
  appearance of the turfgrass: appeared healthy
[7]; Zone 4: 10 grams per square meter
  effect on the turfgrass: burning effect
[8]
  growth in liquid culture, G. graminis: no growth was observed
